Paper PMC11583123, “Linker Chemistry and Connectivity Fine-Tune the Immune Response and Kinetic Solubility of Conjugated NOD2/TLR7 Agonists” (Bioconjugate Chemistry, 2024)

What was measured:
human TLR7 = target: T1, human TLR7 (Homo sapiens, UniProt Q9NYK1); test: HEK-Blue TLR7 NF-κB SEAP reporter assay; type: cell-based; details: for EC50 / TLR7 agonistic activity (in words): HEK-Blue TLR7 cells; for EC50: 18 h, eight concentrations (1 nM to 10 μM), mean ± SEM; for TLR7 agonistic activity (in words): up to 10 μM
T1 construct: host or cells: HEK-Blue TLR7 (HEK293-derived)
T1 sequence (Q9NYK1 27-1049): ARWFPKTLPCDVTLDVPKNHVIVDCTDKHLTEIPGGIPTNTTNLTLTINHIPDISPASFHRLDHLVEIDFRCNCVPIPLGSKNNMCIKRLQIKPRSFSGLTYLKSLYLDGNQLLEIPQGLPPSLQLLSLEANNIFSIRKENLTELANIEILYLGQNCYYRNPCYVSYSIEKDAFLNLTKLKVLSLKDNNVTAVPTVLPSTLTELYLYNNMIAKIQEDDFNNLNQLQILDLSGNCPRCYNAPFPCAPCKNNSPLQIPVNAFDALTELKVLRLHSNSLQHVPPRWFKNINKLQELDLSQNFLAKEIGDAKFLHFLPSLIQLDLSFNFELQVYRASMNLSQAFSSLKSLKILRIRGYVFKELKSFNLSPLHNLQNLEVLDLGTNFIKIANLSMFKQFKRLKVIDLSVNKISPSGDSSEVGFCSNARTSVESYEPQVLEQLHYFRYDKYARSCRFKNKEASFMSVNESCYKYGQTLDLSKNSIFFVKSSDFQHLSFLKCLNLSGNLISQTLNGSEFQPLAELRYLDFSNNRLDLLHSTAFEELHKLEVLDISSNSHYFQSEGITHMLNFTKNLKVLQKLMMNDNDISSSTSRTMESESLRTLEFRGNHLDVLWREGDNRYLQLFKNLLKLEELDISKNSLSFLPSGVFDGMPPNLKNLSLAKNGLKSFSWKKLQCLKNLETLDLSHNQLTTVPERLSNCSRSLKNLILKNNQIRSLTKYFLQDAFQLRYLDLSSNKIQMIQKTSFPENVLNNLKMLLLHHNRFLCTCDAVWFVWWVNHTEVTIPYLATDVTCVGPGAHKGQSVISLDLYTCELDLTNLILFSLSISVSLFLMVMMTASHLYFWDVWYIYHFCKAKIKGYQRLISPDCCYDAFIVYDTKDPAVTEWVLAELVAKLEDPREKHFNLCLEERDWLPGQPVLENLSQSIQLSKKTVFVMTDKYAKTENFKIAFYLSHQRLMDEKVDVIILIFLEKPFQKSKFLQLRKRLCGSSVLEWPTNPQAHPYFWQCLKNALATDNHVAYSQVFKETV
Source text: (§1) The building blocks and synthesized conjugates were initially assessed for their receptor-specific activities toward NOD2, TLR7 and TLR8 using the commercially available HEK-Blue NOD2, TLR7 and TLR8 reporter cell lines. These cell lines were derived from HEK293 cells by cotransfection of human NOD2/TLR7/TLR8 and an NF-κB-inducible secreted embryonic alkaline phosphatase (SEAP). Activation of NOD2/TLR7/TLR8, and subsequently of NF-κB, leads to the expression and secretion of SEAP, the levels of which can be quantified colorimetrically. […]
(§2) 3.1. Hek-Blue NOD2, TLR7 and TLR8 cells.
(§3) HEK-Blue NOD2, TLR7, and TLR8 cells (Invivogen, San Diego, CA, USA) were cultured according to the manufacturer instructions in Dulbecco’s modified Eagle’s medium (Sigma-Aldrich, St. Louis, MO, USA) supplemented with 10% heat-inactivated fetal bovine serum (Gibco), 2 mM L-glutamine (Sigma-Aldrich), 100 U/mL penicillin (Sigma-Aldrich), 100 µg/mL streptomycin (Sigma-Aldrich), and 100 µg/mL Normocin (Invivogen) for two passages. All subsequent passages of NOD2 and TLR8 cells were cultured in medium additionally supplemented with 100 µg/mL Zeocin and 30 µg/mL Blasticidin (Invivogen) and of TLR7 cells with 100 µg/mL Zeocin and 10 µg/mL Blasticidin. […]
(§4) The tested compounds were dissolved in DMSO and further diluted in culture medium to the desired final concentrations, such that the final DMSO concentration never exceeded 0.1%. […]
(§5) 3.4 NOD2/TLR7/TLR8 NF-kB reporter assay
(§6) HEK-Blue NOD2 cells (25,000 cells/well), TLR7 and TLR8 cells (40,000 cells/well) were seeded in 96-well plates in 100 µL HEK-Blue detection medium (Invivogen, San Diego, CA, USA) and treated with […]
(§7) corresponding vehicle (0.1% DMSO). After 18 h of incubation (37 °C, 5% CO2), secreted embryonic

[1] = Kinetic solubility in PBS (UHPLC, method of Hoelke et al.); type: physicochemical; details: for solubility kinetic: PBS, aqueous with cosolvent or surfactant or cyclodextrin, kinetic from dmso stock, 5% DMSO
Experimental: Second, the kinetic solubility of all individual building blocks (compounds 4-7) and conjugates was determined (results are listed in Table 1) in order to highlight how fine-tuning of linker traits can impact this physicochemical property. Kinetic solubility refers to the maximum solubility of a compound when it precipitates from a supersaturated solution, which is metastable and not in equilibrium; it was measured using the method described by Hoelke et al.[34] The length and composition of the linker as well as linkage site are important for activity and physicochemical characteristics of conjugates, which in turn affect their pharmacokinetic profiles. In general, the benzylic COOH was exploited exclusively as the linker attachment site in TLR7 agonist-featuring conjugates, while two potential linkage sites were considered in the structure of NOD2 agonist. […] In conjugates 22-24 and 29, the moieties were connected via the γ-COOH group of the NOD2 agonist. […] It has to be kept in mind that among the polyalkylethers, the structural requirements for aqueous solubility are poised toward the (−OCH2CH2−)n unit while (−OCH2CH2CH2−)n is not beneficial in this respect.[35] […]
suspension was filtered through a syringe filter (0.45 μm), diluted 2.25-fold with acetonitrile, and analyzed with UHPLC. The solubility was quantified with a five-point calibration curve from 500 to 0.8 μM generated by dilution of the original DMSO solution into a 1:1 mixture of acetonitrile and PBS. The content of DMSO in all solutions was fixed to 5% by adding the respective amounts of DMSO. The column used was Waters Acquity UPLC BEH C18 (1.7 μm, 2.1 × 50 mm). The eluent was a mixture of 0.1% TFA in water (A) and acetonitrile (B), with a gradient of (%B): 0−6 min, 5−95%; 6−8 min, 95%; 8−8.5 min, 95−5%. The column was thermostated at 40 °C.
3.1. Hek-Blue NOD2, TLR7 and TLR8 cells. […]
(BioTek Synergy microplate reader; Winooski, VT, USA). EC50 values were calculated using Prism

human NOD2 = target: T2, human NOD2 (Homo sapiens, UniProt Q9HC29); test: HEK-Blue NOD2 NF-κB SEAP reporter assay; type: cell-based; details: HEK-Blue NOD2 cells
T2 construct: host or cells: HEK-Blue NOD2 (HEK293-derived)
T2 sequence (Q9HC29 whole entry): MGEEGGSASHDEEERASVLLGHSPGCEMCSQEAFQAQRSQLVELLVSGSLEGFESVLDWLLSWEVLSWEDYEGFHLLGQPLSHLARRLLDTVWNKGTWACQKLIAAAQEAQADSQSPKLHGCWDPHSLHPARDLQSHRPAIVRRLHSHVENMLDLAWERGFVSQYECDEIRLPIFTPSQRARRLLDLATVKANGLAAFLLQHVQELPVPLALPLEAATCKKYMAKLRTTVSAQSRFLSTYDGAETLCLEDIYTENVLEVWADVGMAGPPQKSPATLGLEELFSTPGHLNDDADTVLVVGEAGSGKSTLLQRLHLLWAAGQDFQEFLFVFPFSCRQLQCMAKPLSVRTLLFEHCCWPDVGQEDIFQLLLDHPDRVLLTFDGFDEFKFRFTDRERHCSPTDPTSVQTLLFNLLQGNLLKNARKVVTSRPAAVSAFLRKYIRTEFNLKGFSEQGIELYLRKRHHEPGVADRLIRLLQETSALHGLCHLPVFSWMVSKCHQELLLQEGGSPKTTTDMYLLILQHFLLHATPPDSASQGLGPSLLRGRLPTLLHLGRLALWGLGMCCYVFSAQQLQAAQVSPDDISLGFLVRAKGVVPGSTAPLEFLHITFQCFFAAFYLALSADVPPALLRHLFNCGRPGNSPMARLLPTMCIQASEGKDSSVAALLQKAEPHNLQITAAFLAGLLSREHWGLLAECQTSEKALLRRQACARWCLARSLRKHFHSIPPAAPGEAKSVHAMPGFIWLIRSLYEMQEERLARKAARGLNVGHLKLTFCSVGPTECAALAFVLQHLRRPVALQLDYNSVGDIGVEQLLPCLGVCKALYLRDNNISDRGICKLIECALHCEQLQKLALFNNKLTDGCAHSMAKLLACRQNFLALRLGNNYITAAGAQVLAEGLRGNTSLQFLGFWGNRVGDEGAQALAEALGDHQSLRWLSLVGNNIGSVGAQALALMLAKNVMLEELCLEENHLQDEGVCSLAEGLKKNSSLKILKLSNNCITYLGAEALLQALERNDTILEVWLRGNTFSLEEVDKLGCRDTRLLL
Source text: as §1, §2, §3, §4, §5, §6, §7

human TLR8 = target: T3, human TLR8 (Homo sapiens, UniProt Q9NR97); test: HEK-Blue TLR8 NF-κB SEAP reporter assay; type: cell-based; details: HEK-Blue TLR8 cells, 18 h, eight concentrations (1 nM to 10 μM), mean ± SEM
T3 construct: host or cells: HEK-Blue TLR8 (HEK293-derived)
T3 sequence (Q9NR97 27-1041): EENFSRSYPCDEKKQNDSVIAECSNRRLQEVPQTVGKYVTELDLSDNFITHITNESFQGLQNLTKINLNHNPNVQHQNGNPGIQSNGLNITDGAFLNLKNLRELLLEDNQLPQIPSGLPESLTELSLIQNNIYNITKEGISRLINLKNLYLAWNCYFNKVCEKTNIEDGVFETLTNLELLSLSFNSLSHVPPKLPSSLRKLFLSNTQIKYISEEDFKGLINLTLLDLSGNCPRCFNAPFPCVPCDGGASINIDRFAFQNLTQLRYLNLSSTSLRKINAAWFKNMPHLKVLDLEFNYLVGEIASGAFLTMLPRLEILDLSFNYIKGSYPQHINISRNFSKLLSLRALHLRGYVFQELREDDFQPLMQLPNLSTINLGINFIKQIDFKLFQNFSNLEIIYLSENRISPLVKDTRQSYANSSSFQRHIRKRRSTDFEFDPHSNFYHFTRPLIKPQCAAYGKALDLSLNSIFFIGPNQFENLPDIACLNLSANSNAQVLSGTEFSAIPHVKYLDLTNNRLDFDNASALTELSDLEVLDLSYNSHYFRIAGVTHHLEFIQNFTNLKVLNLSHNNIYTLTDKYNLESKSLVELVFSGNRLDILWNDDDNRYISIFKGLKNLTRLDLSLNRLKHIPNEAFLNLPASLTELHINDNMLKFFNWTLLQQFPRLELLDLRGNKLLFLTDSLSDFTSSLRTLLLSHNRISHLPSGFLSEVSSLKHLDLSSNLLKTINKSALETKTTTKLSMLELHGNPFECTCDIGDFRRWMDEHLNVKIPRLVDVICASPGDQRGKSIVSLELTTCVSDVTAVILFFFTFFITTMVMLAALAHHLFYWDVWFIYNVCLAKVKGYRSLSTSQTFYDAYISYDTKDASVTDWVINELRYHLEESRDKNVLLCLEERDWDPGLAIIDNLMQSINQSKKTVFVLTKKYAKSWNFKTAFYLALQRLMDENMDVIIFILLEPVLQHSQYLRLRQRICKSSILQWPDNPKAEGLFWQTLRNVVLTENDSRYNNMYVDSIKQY
Source text: as §1, §2, §3, §4, §5, §6, §7

[2] = 18 h, eight concentrations (1 nM to 10 μM), mean ± SEM

Structure (SMILES) | solubility kinetic [1] [µM] | EC50 (human TLR8) [µM] | EC50 (human TLR7) [µM] | TLR7 agonistic activity (in words) (human TLR7) | Boost in solubility over conjugate 2 ([1]; ratio of kinetic solubilities in PBS) [fold] | EC50 (human NOD2; [2]) [µM] | Enhancement of TLR7 activity over 22 and 29 (human TLR7; ratio of EC50 values) [fold] | EC50 (human NOD2) [µM]
CCCCOc1nc(N)c2nc(O)n(Cc3ccc(C(=O)NCCOCCOCCNC(=O)CC[C@@H](NC(=O)[C@@H](NC(=O)CNC(=O)/C=C/c4ccc(O)c(OC)c4)C(C)C)C(=O)OCC)cc3)c2n1 [compound 22] | 85.4 |  | 0.419 | activated TLR7 in the midnanomolar range | ~25 | > 10 |  | 
CCOCc1nc2c(N)nc3ccccc3c2n1CC(C)(C)O [Resiquimod (6), Resiquimod, reference compound] | 469 |  |  |  |  |  |  | 
CCCCOc1nc(N)c2nc(O)n(Cc3ccc(C(=O)NCCOCCOCCNC(=O)[C@@H](CCC(=O)OCC)NC(=O)[C@@H](NC(=O)CNC(=O)/C=C/c4ccc(O)c(OC)c4)C(C)C)cc3)c2n1 [compound 26] | 9.2 |  | 0.247 | activated TLR7 in the midnanomolar range |  | > 10 |  | 
CCCCOc1nc(N)c2nc(O)n(Cc3ccc(C(=O)NCCCOCCOCCOCCCNC(=O)CC[C@@H](NC(=O)[C@@H](NC(=O)CNC(=O)/C=C/c4ccc(O)c(OC)c4)C(C)C)C(=O)OCC)cc3)c2n1 [compound 23] | 38.6 |  | 0.165 | activated TLR7 in the midnanomolar range |  | > 10 | 2.5 | 
CCCCOc1nc(N)c2nc(O)n(Cc3ccc(C(=O)NCCCCCCNC(=O)CC[C@@H](NC(=O)[C@@H](NC(=O)CNC(=O)/C=C/c4ccc(O)c(OC)c4)C(C)C)C(=O)OCC)cc3)c2n1 [compound 24] | 2.8 |  | 0.238 | activated TLR7 in the midnanomolar range |  | 6.16 ± 1.25 |  | 6.2
CCCCOc1nc(N)c2nc(O)n(Cc3ccc(C(=O)NCCOCCOCCOCCn4cc(CNC(=O)CC[C@@H](NC(=O)[C@@H](NC(=O)CNC(=O)/C=C/c5ccc(O)c(OC)c5)C(C)C)C(=O)OCC)nn4)cc3)c2n1 [compound 29] | 35.4 |  | 0.391 | activated TLR7 in the midnanomolar range |  | > 10 |  | 

The next lines start with results.

solubility kinetic [1] [µM] | EC50 (human TLR8) [µM] | Structure (SMILES) | EC50 (human TLR7) [µM] | TLR7 agonistic activity (in words) (human TLR7) | Boost in solubility over conjugate 2 ([1]; ratio of kinetic solubilities in PBS) [fold] | EC50 (human NOD2; [2]) [µM] | Enhancement of TLR7 activity over 22 and 29 (human TLR7; ratio of EC50 values) [fold] | EC50 (human NOD2) [µM]
1.9 |  | CCCCOc1nc(N)c2nc(O)n(Cc3ccc(C(=O)NCCCCCC(=O)Oc4ccc(/C=C/C(=O)NCC(=O)N[C@H](C(=O)N[C@H](CCC(=O)OCC)C(=O)OCC)C(C)C)cc4OC)cc3)c2n1 [compound 1] | 0.0986 ± 0.0011 |  |  | 0.105 ± 0.0028 |  | 
415 |  | CCOC(=O)CCC(NC(=O)C(NC(=O)CNC(=O)C=Cc1ccc(O)c(OC)c1)C(C)C)C(=O)OCC (stereo not drawn) [compound 5] |  |  |  |  |  | 
3.67 |  | CCCCOc1nc(N)c2nc(O)n(Cc3ccc(C(=O)NCCOCCNC(=O)CC[C@@H](NC(=O)[C@@H](NC(=O)CNC(=O)/C=C/c4ccc(O)c(OC)c4)C(C)C)C(=O)OCC)cc3)c2n1 [compound 2] | 0.0214 ± 0.001 |  |  | > 10 |  | 
337 | 5.9 ± 1.79 | CCOCc1nc2c(N)nc3ccccc3c2n1CC(C)(C)N [compound 7, reference compound] | 1.82 ± 0.097 |  |  |  |  | 
483 |  | CCCCOc1nc(N)c2nc(O)n(Cc3ccc(C(=O)O)cc3)c2n1 [compound 4, reference compound] | 0.226 ± 0.0145 |  |  |  |  | 
